Laboratory results reported in patent US20240016953A1, “TARGETED DELIVERY OF NICOTINAMINDE ADENINE DINUCLEOTIDE SALVAGE PATHWAY INHIBITORS” (Seagen Inc., priority 2016, published 2024).
pIC50: −log10 of the molar value.

Experiments:
[1] = test system: L540cy (Hodgkin's lymphoma); assay: Cytotoxicity (CellTiter-Glo) assay, L540cy; assay type: cell-based; conditions: read-out: IC50, Cytotoxicity L540cy
Description: (§1) Example 99: Binding and cytoxicity of NAMPTi compounds. NAMPTi compounds and derivatives thereof bearing functional groups on their NAMPT Tail (TN) Units for covalent attachment as a NAMPT Drug Unit to a Linker Unit of a Drug Linker compound or Ligand Drug Conjugate were evaluated for binding to enzymatically competent NAMPT using a fluorescence polarization assay as described in Example X, and for cytotoxicity using the CellTiter-Glo™ assay as described in Example XX. […] In vitro cytotoxicities were more varied, with differences in membrane permeability potentially influencing the observed IC50 values. Tighter-binding compounds determined from the polarization assay representation various NAMPT Head Unit classes were selected for further elaboration into drug linker moieties within Drug Linker compounds and Ligand Drug Conjugates. Those elaborations employed carbamate or benzyl ether functional groups or methylene-alkoxy carbamate (MAC) units for covalent attachment of the NAMPT Drug Unit to a self-immolative Spacer Unit in the Linker Units of the drug linker moieties, depending on the functional group presented by the TN Unit.

[2] = test system: BxPC-3 (pancreatic adenocarcinoma); assay: Cytotoxicity (CellTiter-Glo) assay, BxPC-3; assay type: cell-based; conditions: Homo sapiens, BXPC-3, read-out: IC50, Cytotoxicity BxPC-3
Description: as §1

[3] = test system: HepG2 (hepatocellular carcinoma); assay: Cytotoxicity (CellTiter-Glo) assay, HepG2; assay type: cell-based; conditions: Homo sapiens, HepG2, read-out: IC50, Cytotoxicity HepG2
Description: as §1

[4] = test system: MOLM-13 (acute myeloid leukemia); assay: Cytotoxicity (CellTiter-Glo) assay, MOLM-13; assay type: cell-based; conditions: Homo sapiens, MOLM-13, read-out: IC50, Cytotoxicity MOLM-13
Description: as §1

NAMPT = target: T1, NAMPT (Homo sapiens, UniProt P43490); assay: Fluorescence polarization (FP) assay for binding to purified NAMPT; conditions: for pIC50: NAMPT 120 nM, fluorescent probe 30 nM, 4 hours at room temp
T1 construct: made in house; host or cells: E. coli (pET28a vector, Novagen)
T1 sequence (P43490 whole entry): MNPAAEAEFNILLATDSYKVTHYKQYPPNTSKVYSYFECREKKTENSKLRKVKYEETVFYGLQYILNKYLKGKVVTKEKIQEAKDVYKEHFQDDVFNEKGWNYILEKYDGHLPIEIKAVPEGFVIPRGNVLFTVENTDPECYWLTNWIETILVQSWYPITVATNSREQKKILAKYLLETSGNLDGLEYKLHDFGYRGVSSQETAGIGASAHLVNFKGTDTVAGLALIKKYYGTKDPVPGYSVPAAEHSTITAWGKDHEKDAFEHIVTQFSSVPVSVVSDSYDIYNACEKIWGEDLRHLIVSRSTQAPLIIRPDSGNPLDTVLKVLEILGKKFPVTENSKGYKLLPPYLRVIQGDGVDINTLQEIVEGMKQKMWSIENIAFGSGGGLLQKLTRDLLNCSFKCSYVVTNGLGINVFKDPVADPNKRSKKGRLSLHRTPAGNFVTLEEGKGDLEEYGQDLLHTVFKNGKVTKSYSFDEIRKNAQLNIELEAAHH

pIC50 (NAMPT) | SMILES | pIC50 [1] | pIC50 [2] | pIC50 [3] | pIC50 [4] | Change in NAMPT enzyme binding on modification of the TN Unit, relative to parent NAMPTi compound (NAMPT; FP assay, in words)
6.94 | Nc1ccc(C(=O)N2CCC(CCCCNC(=O)/C=C/c3cccnc3)CC2)cc1 [compound 4, (E)-N-(4-(1-(4-Aminobenzoyl)Piperidin-4-Yl)Butyl)-3-(Pyridin-3-y1)Acrylamide] |  |  |  |  | 
7.00 | Nc1ccccc1C(=O)N1CCC(CCCCNC(=O)/C=C/c2cccnc2)CC1 [compound 5, (E)-N-(4-(1-(2-Aminobenzoyl)Piperidin-4-Yl)Butyl)-3-(Pyridin-3-Yl)Acrylamide] | 7.46 | 6.16 | 6.00 | 7.40 | 
7.10 | O=C(/C=C/c1cccnc1)NCCCCC1CCN(C(=O)c2ccc(O)cc2)CC1 [compound 7, (E)-N-(4-(1-(4-Hydroxybenzoyl)Piperidin-4-Yl)Butyl)-3-(Pyridin-3-Yl)Acrylamide] |  |  |  |  | 
7.10 | O=C(/C=C/c1cccnc1)NCCCCC1CCN(C(=O)c2cccc(OCCO)c2)CC1 [compound 9, (E)-N-(4-(1-(3-(2-Hydroxyethoxy)Benzoyl)Piperidin-4-Yl)Butyl)-3-(Pyridin-3-Yl)Acrylamide] |  |  |  |  | 
7.04 | O=C(/C=C/c1cccnc1)NCCCCC1CCN(C(=O)c2ccc(OCCO)cc2)CC1 [compound 10, (E)-N-(4-(1-(4-(2-Hydroxyethoxy)Benzoyl)Piperidin-4-Yl)Butyl)-3-(Pyridin-3-Yl)Acrylamide] |  |  |  |  | 
7.09 | CN(CCON(C(=O)CCCCCCNC(=O)Nc1ccncc1)C1CCCCC1)C(=O)c1cccc(N)c1 [compound 43, 3-Amino-N-(2-((N-Cyclohexyl-7-(3-(Pyridin-4-Yl)Ureido)-Heptanamido)Oxy)Ethyl)-N-Methylbenzamide] | 8.52 | 8.10 | 8.40 | 8.22 | significant improvement in binding relative to parent compound 30
7.21 | CCN(CCON(C(=O)CCCCCCNc1c(Nc2ccncc2)c(=O)c1=O)C1CCCCC1)C(=O)c1cccc(N)c1 [compound 60] | 7.51 | 6.90 | 7.46 | 8.10 | 
7.46 | CN(CC1(CO)CCCC1)C(=O)CCCCCCCNc1c(Nc2ccncc2)c(=O)c1=O [compound 69, 8-((3,4-Dioxo-2-(Pyridin-4-Ylamino)Cyclobut-1-En-1-Yl)Amino)-N-((1-(Hydroxymethyl)Cyclopentyl)Methyl)-N-Methyloctanamide] | 8.04 | 7.01 | 7.90 | 7.74 | 
7.77 | CN(CC1(CO)CCCC1)C(=O)CCCCCCCN/C(=N\C#N)Nc1ccncc1 [compound 80, (E)-8-(2-Cyano-3-(Pyridin-4-Yl)Guanidino)-N-((1-(Hydroxymethyl)Cyclopentyl)Methyl)-N-Methyloctanamide] | 9.11 | 8.21 | 8.97 | 8.79 | 
7.62 | N#C/N=C(\NCCCCCCCC(=O)N(CCO)Cc1ccco1)Nc1ccncc1 [compound 81, (E)-8-(2-Cyano-3-(Pyridin-4-Yl)Guanidino)-N-(Furan-2-Ylmethyl)-N-(2-Hydroxyethyl)Octanamide] | 8.80 | 7.75 | 8.19 | 8.68 | 
7.49 | CN(CCO)C(=O)CCCCCCCN/C(=N\C#N)Nc1ccncc1 [compound 83, (E)-8-(2-Cyano-3-(Pyridin-4-Yl)Guanidino)-N-(2-Hydroxyethyl)-N-Methyloctanamide] | 7.29 | 6.05 | 7.12 | 6.81 | 

More lines, now with the values behind:

SMILES | pIC50 (NAMPT) | pIC50 [1] | pIC50 [2] | pIC50 [3] | pIC50 [4] | Change in NAMPT enzyme binding on modification of the TN Unit, relative to parent NAMPTi compound (NAMPT; FP assay, in words)
N#CN=C(NCCCCCCOc1ccc(Cl)cc1)Nc1ccncc1 [CHS-828, reference compound] |  | 8.65 | 8.10 | 8.94 | 8.34 | 
O=C(/C=C/c1cccnc1)NCCCCC1CCN(C(=O)c2ccccc2)CC1 [FK-866, reference compound] |  | 8.14 | 7.44 | 8.26 | 8.18 | 
Nc1cccc(C(=O)N2CCC(CCCCNC(=O)/C=C/c3cccnc3)CC2)c1 [compound 3] | 7.40 | 8.07 | 7.41 | 8.10 | 8.15 | 
O=C(/C=C/c1cccnc1)NCCCCC1CCN(C(=O)c2cccc(O)c2)CC1 [compound 6, (E)-N-(4-(1-(3-Hydroxybenzoyl)Piperidin-4-Yl)Butyl)-3-(Pyridin-3-Yl)Acrylamide] | 7.44 | 7.70 | 6.71 | 7.54 | 8.10 | 
O=C(/C=C/c1cccnc1)NCCCCC1CCN(C(=O)c2ccccc2O)CC1 [compound 8, (E)-N-(4-(1-(2-Hydroxybenzoyl)Piperidin-4-Yl)Butyl)-3-(Pyridin-3-Yl)Acrylamide] | 7.00 | 7.06 | 6.19 | 6.66 | 7.00 | 
O=C(CCCCCCNc1c(Nc2ccncc2)c(=O)c1=O)N(OCCN1CCOCC1)C1CCCCC1 [compound 52, reference compound] | 7.39 | 8.32 | 7.41 | 8.06 | 8.28 | 
O=C(CCCCCCCNc1c(Nc2ccncc2)c(=O)c1=O)N(CCO)Cc1ccco1 [compound 66] | 7.62 | 7.65 | 6.68 | 7.22 | 7.57 | 
O=C(CCCCCCCNc1c(Nc2ccncc2)c(=O)c1=O)N1CCC(O)CC1 [compound 67] | 7.80 | 6.58 | 6.00 | 6.02 | 6.97 | 
O=C(CCCCCCCNc1c(Nc2ccncc2)c(=O)c1=O)N1CC(O)C1 [compound 68] | 7.57 | 6.00 | 6.00 | 6.00 | 6.09 | 
CN(CCO)C(=O)CCCCCCCNc1c(Nc2ccncc2)c(=O)c1=O [compound 72] | 7.54 | 6.00 | 6.00 | 6.00 | 6.09 | 
N#C/N=C(\NCCCCCCCC(=O)N1CCC(O)CC1)Nc1ccncc1 [compound 82, (E)-2-Cyano-1-(8-(4-Hydroxypiperidin-1-Yl)-8-Oxooctyl)-3-(Pyridin-4-Yl)Guanidine] |  | 7.41 | 6.77 | 7.60 | 8.00 | 
